“Also recorded” adds a separate entry of the source. Where two headings read alike, the source gives them in different places.
Experiments:
[1] = target: T1, human BChE (Homo sapiens, UniProt P06276); experiment: IC50 determination, modified 96-microtiter plate Ellman assay; format: biochemical; details: purified human serum BChE, 0.5 mM BTCh, 50 mM MOPS pH 7.4, 37 °C, Table 2 head prints no unit, µM
T1 construct: purification process was performed using 0 Rh (−) human blood serum from the Hacettepe Hospital blood bank; from tissue; host or cells: human blood serum (0 Rh(−), Hacettepe Hospital blood bank)
Protocol: (§1) The butyrylcholinesterase purification process was performed using 0 Rh (−) human blood serum from the Hacettepe Hospital blood bank, as described in a previous study (Gok et al. [2023]). BChE was subjected to acid dialysis followed by DEAE-Trisacryl M ion-exchange chromatography under pH 5.5 conditions. The pooled active fractions from Trisacryl M chromatography were dialyzed to adjust neutral buffer pH 7.4 and transferred to procainamide-Sepharose 4B chromatography. The BChE enzyme was bound to the procainamide column, which was then washed with 25 mM phosphate buffer at pH 7.4. The BChE was eluted from the column with a linear gradient of 0.2–0.8 M NaCl in 25 mM potassium phosphate buffer pH 7.4, followed by dialysis. […] Silver staining (Blum et al. [1987]) and the Karnovsky-Roots technique (Karnovsky and Roots [1964]) were used to visualize gels that had been labeled for activity and protein, […].
The IC₅₀ was determined using the modified 96-microtiter plate Ellman assay (George and Abernethy [1983]), using a total volume of 200 µL. […] The unsaturated fatty acids used for the test were dissolved in DMSO and then the working solutions were sonicated in a reaction buffer for 30 s, followed by a further 30 s. The fatty acid solutions with different final concentrations of 10–7500 µM were added to the wells. Subsequently, 50 mM MOPS buffer (pH 7.4) and 0.7 µg of purified BChE enzyme were added. The plate was incubated in the absence of light with a plate shaker at 37 °C for 10 min. Measurements were initiated by adding a final concentration of 0.25 mM DTNB (ε412, DTNB = 14.2 mM^−1 cm^−1) and 0.5 mM butyrylthiocholine (BTCh). The mixture of 1% DMSO without the BTCh substrate was used as the reagent blank. The absorbance readings were recorded at a wavelength of 412 nm for a period of 10 min using the Spectramax M2 microplate reader (Molecular Devices, USA). The activity without fatty acids was set as 100% control, while all activities with fatty acids were compared to this control. IC₅₀ values were determined using GraphPad Prism 8.4 software by plotting the percentage of BChE activity against the fatty acid concentration. Each test was performed at least four times and average values were reported as final results.

[2] = target: T1, human BChE; experiment: Inhibition kinetics, Ellman method with varying BTCh substrate; format: biochemical; details: for Ki: BTCh as substrate (1.0-0.05 mM), three fatty acid concentrations; for Inhibition type: Lineweaver-Burk analysis, BTCh as substrate
Protocol: as §1
Evaluation of BChE activity was performed according to the Ellman method (George and Abernethy [1983]) with a minor modification in a 96-well microtiter plate assay. The fatty acids oleic acid, linoleic acid, α-LA, and arachidonic acid used in the assay were dissolved in DMSO. The working solutions were then sonicated in a reaction buffer for 30 + 30 s. Based on previous experimental results, three concentrations of oleic acid, linoleic acid, α-LA, and arachidonic acid were chosen: 200–750 µM, 500–2500 µM, 50–250 µM, and 100–300 µM, respectively. This was to clarify the inhibitory mechanisms for the fatty acids. In the presence of these fatty acids, BChE activity was measured at eight progressively lower concentrations (1.0–0.05 mM) of the BTCh substrate. The experimental procedure involved incubation of a solution of the fatty acid with BChE enzyme (0.7 µg), 50 mM MOPS buffer pH 7.4, and 0.25 mM DTNB in the absence of light at 37 °C for 5 min. The reaction was initiated and monitored for 10 min at 412 nm in kinetic mode after addition of the substrate. The identical solution was run with buffer instead of fatty acids as a control and all assays were performed in triplicate. Enzyme activity was expressed in milliunits (mU), where 1 mU corresponds to the hydrolysis of 1 nmol of BTCh per minute at room temperature.
Enzyme kinetics data was analyzed and graphs were plotted using GraphPad Prism 8.42. The kinetic parameters and the enzyme-substrate relationship were fitted to the Michaelis-Menten model using nonlinear regression.

[3] = tested on: AChE; set-up: method as in Akay et al. [2023]; details: ref Akay et al. [2023]; cited from earlier work

T1 sequence (P06276 29-602): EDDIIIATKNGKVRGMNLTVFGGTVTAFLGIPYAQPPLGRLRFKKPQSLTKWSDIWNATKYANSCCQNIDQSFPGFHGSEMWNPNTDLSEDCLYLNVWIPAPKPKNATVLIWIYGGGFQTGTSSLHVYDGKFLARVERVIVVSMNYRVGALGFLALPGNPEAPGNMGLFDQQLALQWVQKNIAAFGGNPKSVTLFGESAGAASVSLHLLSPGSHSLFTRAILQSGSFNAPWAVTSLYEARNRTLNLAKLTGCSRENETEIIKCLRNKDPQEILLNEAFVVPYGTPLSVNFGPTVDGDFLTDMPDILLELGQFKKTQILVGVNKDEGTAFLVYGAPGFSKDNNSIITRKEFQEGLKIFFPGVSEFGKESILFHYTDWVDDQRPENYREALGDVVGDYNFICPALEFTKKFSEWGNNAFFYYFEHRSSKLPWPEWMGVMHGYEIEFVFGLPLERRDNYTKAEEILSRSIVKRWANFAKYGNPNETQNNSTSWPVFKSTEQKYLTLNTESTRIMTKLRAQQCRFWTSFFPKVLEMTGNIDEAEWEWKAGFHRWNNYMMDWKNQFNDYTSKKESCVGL

SMILES: CCCCC/C=C\C/C=C\C/C=C\C/C=C\CCCC(=O)O [Arachidonic acid, arachidonic acid]
- IC50 [1]: strongest inhibitory activity
- IC50 ([1]; read-out: IC50): 611 µM
- Ki ([2]; read-out: Ki): 465 µM
- Inhibition type ([2]; listed as AA): uncompetitive type inhibition
- Inhibition type ([2]; listed as Arachidonic acid (20:4)): Uncompetitive
- inhibitory effect on AChE (IC50), rank in words [3]: strongest inhibitory effect

SMILES: CCCCC/C=C\C/C=C\CCCCCCCC(=O)O [Linoleic acid, linoleic acid]
- IC50 ([1]; read-out: IC50): 5910 µM
- Ki ([2]; read-out: Ki): 1400 µM
- Inhibition type [2]: Noncompetitive inhibition
- Inhibition type ([2]; listed as LA): noncompetitive inhibition type
- Inhibition type ([2]; listed as Linoleic acid (18:2)): Noncompetitive

SMILES: CCCCCCCC/C=C\CCCCCCCC(=O)O [Oleic acid, oleic acid]
- IC50 ([1]; read-out: IC50): 2370 µM
- Ki [2]: lowest Ki value
- Ki ([2]; read-out: Ki): 321 µM
- Inhibition type [2]: noncompetitively
- Inhibition type ([2]; listed as Oleic acid (18:1)): Noncompetitive

SMILES: CCCCCCCCCCCCCCCCCCCC(=O)O [eicosanoic acid]
- AChE inhibition in words [3]: strongly inhibits

SMILES: CC/C=C\C/C=C\C/C=C\CCCCCCCC(=O)O [α-Linolenic acid, alpha-linolenic acid]
- IC50 ([1]; read-out: IC50): 5810 µM
- Ki ([2]; read-out: Ki): 667 µM
- Inhibition type ([2]; listed as α-LA): noncompetitively; also recorded: noncompetitive inhibition type
- Inhibition type ([2]; listed as α-Linolenic acid (18:3)): Noncompetitive
- noncompetitive inhibitory constants (Ki) on AChE, rank in words [3]: lowest Ki

Reference: publication PMC12449371, “The role of unsaturated fatty acids in modulating human butyrylcholinesterase activity: insights from kinetics and molecular docking” (Naunyn-Schmiedeberg's Archives of Pharmacology, 2025)
